Experimental findings from patent publication US20120301895A1, “METHODS OF MODULATING BINDING OF SON OF SEVENLESS TO PHOSPHATIDIC ACID AND IDENTIFYING COMPOUNDS THAT MODULATE SUCH BINDING” (THE RESEARCH FOUNDATION OF STATE UNIVERSITY OF NEW YORK, priority 2007, published 2012) are described below.

The assay relates to Calu-1 cells. Kind of assay: Cell viability and PARP cleavage in Calu-1 cells. In kind it is cell-based, human. Conditions: honokiol 20 μM, 0.5% serum. As to the method: In FIG. 17A, T24 and Calu1 cells (obtained from the American Type Culture Collection) were plated in DMEM containing 10% serum for 48 hr and then shifted to either 10% serum or 0.5% serum overnight as indicated. Honokiol (20 μM) or control ethanol was then added for 4 hr as indicated. [^3H]-Myristate was added with the honokiol. After 4 hr, BtOH (0.7%) was added for 20 min, at which time the cells were harvested and the level of phosphatidyl-BtOH (P-Bt) was determined as in FIGS. 12A-C. The experiments shown are representative of at least two independent experiments. In FIG. 17B, T24 and Calu-1 cells were plated in DMEM with 10% serum for 48 hr then changed to DMEM containing either 10% or 0.5% serum overnight as indicated. Honokiol (20 μM) or control ethanol was then added either at the time of changing media (24 hr), or 4 hr before harvesting as in FIGS. 14A-E, at which time the cells were examined for cell viability or PARD cleavage. […]
Cell viability was determined by trypan blue exclusion. […] After 10 min, trypan blue uptake (dead cells) was determined by counting on a hemocytometer. Apoptosis was evaluated by examination of cleavage of the caspase 3 substrate PARP as described previously (Chen et al., “Alternative Phospholipase D/mTOR Survival Signal in Human Breast Cancer Cells,” Oncogene 24:672-9 (2005), which is hereby incorporated by reference in its entirety). […]

As for `C=CCc1ccc(O)c(-c2ccc(O)c(CC=C)c2)c1` [honokiol, Honokiol], the PARP cleavage result is given as “induced” and the cell death result is on record as “induced”.
